For 30 compounds, IC50 results are on record in patent US12378224B2 (Dong-A Socio Holdings Co., Ltd., priority 2016, dated 2025).

This assay addresses human MER (528-end) (Homo sapiens (Human), UniProt Q12866). Nature of the assay: HTRF Kinase Activity Biochemical Assay (KinEASE-TK). Conditions: 10 uM ATP. Put shortly:
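Recombinant human MER (528-end) phosphorylated biotin-TK peptide substrate, 1 h at room temperature. Reaction stopped with detection buffer containing 0.375 nM Eu3+-cryptate anti-TK antibody and 0.062 uM streptavidin-XL665, 1 h further. Activity taken as HTRF ratio 665/620 nm ×10,000, 340 nm excitation.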

Chain of human MER (528-end) (Q12866 528-999 limits assumed): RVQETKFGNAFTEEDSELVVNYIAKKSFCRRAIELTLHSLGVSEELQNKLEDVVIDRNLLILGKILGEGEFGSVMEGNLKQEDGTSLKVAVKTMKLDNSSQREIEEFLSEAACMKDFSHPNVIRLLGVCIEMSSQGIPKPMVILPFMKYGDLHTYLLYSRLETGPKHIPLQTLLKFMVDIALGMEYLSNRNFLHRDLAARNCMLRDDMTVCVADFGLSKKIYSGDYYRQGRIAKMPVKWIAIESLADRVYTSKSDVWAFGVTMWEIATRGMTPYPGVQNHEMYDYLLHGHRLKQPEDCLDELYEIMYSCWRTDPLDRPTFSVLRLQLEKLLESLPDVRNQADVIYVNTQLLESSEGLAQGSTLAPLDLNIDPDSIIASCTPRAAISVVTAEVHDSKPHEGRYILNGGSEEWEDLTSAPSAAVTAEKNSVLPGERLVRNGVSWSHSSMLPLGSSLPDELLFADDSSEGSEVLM

As a reminder, the IC50 is the concentration needed to halve the response being measured. High values mean weaker potency, low ones greater potency. In the case of `Cn1cc(-c2cnc(N)c(C(=O)N[C@@H]3CCN(C(=O)c4ccc(-c5ccc(C(C)(C)N6CCNCC6)cc5)cc4)C3)c2)cn1` [Example 384, (R)-2-amino-5-(1-methyl-1H-pyrazol-4-yl)-N-(1-(4′-(2-(piperazin-1-yl)propan-2-yl)-[1,1′-biphenyl]-4-carbonyl)pyrrolidin-3-yl)nicotinamide], the IC50 is 10 to 100 nM. `CN1CCN(Cc2ccc(-c3ccc(C(=O)N4CC[C@@H](NC(=O)c5cc(-c6cnn(C)c6)cnc5N)C4)cc3)cc2)CC1` [Example 385, (R)-2-amino-5-(1-methyl-1H-pyrazol-4-yl)-N-(1-(4′-((4-methylpiperazin-1-yl)methyl)-[1,1′-biphenyl]-4-carbonyl)pyrrolidin-3-yl)nicotinamide] had an IC50 of 10 to 100 nM.

Take `CN1CCN(C(C)(C)c2ccc(-c3ccc(C(=O)N4CC[C@@H](NC(=O)c5cc(-c6cnn(C)c6)cnc5N)C4)cc3)cc2)CC1` [Example 386, (R)-2-amino-5-(1-methyl-1H-pyrazol-4-yl)-N-(1-(4′-(2-(4-methylpiperazin-1-yl)propan-2-yl)-[1,1′-biphenyl]-4-carbonyl)pyrrolidin-3-yl)nicotinamide]: the concentration for half-maximal inhibition (IC50) lay within 100 to 1000 nM. Turning to `Cn1cc(-c2cnc(N)c(C(=O)N[C@@H]3CCN(C(=O)c4ccc(-c5ccc(C(C)(C)N6CCN(CCO)CC6)cc5)cc4)C3)c2)cn1` [Example 387, (R)-2-amino-N-(1-(4′-(2-(4-(2-hydroxyethyl)piperazin-1-yl)propan-2-yl)-[1,1′-biphenyl]-4-carbonyl)pyrrolidin-3-yl)-5-(1-methyl-1H-pyrazol-4-yl)nicotinamide], the IC50 lay within 100 to 1000 nM.

Turning to `CN1CCN(Cc2cccc(-c3ccc(C(=O)N4CC[C@@H](NC(=O)c5cc(-c6cnn(C)c6)cnc5N)C4)cc3)c2)CC1` [Example 388, (R)-2-amino-5-(1-methyl-1H-pyrazol-4-yl)-N-(1-(3′-((4-methylpiperazin-1-yl)methyl)-[1,1′-biphenyl]-4-carbonyl)pyrrolidin-3-yl)nicotinamide], the IC50 fell in the range of 100 to 1000 nM. `Cn1cc(-c2cnc(N)c(C(=O)N[C@@H]3CCN(C(=O)c4ccc(-c5cccc(CN6CCN(CCO)CC6)c5)cc4)C3)c2)cn1` [Example 389, (R)-2-amino-N-(1-(3′-((4-(2-hydroxyethyl)piperazin-1-yl)methyl)-[1,1′-biphenyl]-4-carbonyl)pyrrolidin-3-yl)-5-(1-methyl-1H-pyrazol-4-yl)nicotinamide] had an IC50 of 100 to 1000 nM. Compound `CN1CCN(Cc2ccc(-c3cccc(C(=O)N4CC[C@@H](NC(=O)c5cc(-c6cnn(C)c6)cnc5N)C4)c3)cc2)CC1` [Example 390, (R)-2-amino-5-(1-methyl-1H-pyrazol-4-yl)-N-(1-(4′-((4-methylpiperazin-1-yl)methyl)-[1,1′-biphenyl]-3-carbonyl)pyrrolidin-3-yl)nicotinamide] registered an IC50 of over 1000 nM. For `Cn1cc(-c2cnc(N)c(C(=O)N[C@@H]3CCN(C(=O)c4ccc(-c5ccccc5Cl)cn4)C3)c2)cn1` [Example 395, (R)-2-amino-N-(1-(5-(2-chlorophenyl)picolinoyl)pyrrolidin-3-yl)-5-(1-methyl-1H-pyrazol-4-yl)nicotinamide] the value was 100 to 1000 nM; for `Cn1cc(-c2cnc(N)c(C(=O)N[C@@H]3CCN(C(=O)c4ccc(-c5ccccc5)cn4)C3)c2)cn1` [Example 396, (R)-2-amino-5-(1-methyl-1H-pyrazol-4-yl)-N-(1-(5-phenylpicolinoyl)pyrrolidin-3-yl)nicotinamide], over 1000 nM.

`Cn1cc(-c2cnc(N)c(C(=O)N[C@@H]3CCN(C(=O)c4ccc(-c5ccccc5Cl)nc4)C3)c2)cn1` [Example 397, (R)-2-amino-N-(1-(6-(2-chlorophenyl)nicotinoyl)pyrrolidin-3-yl)-5-(1-methyl-1H-pyrazol-4-yl)nicotinamide] returned an IC50 of 100 to 1000 nM. As for `Cc1cc(C(=O)N2CC[C@@H](NC(=O)c3cc(-c4cnn(C)c4)cnc3N)C2)ccc1-c1ccccc1` [Example 399, (R)-2-amino-5-(1-methyl-1H-pyrazol-4-yl)-N-(1-(2-methyl-[1,1′-biphenyl]-4-carbonyl)pyrrolidin-3-yl)nicotinamide], the 50% inhibitory concentration (IC50) was in the range of 100 to 1000 nM.

On to `Cn1cc(-c2cnc(N)c(C(=O)N[C@@H]3CCN(C(=O)c4ccc(I)cc4)C3)c2)cn1` [Example 400, (R)-2-amino-N-(1-(4-iodobenzoyl)pyrrolidin-3-yl)-5-(1-methyl-1H-pyrazol-4-yl)nicotinamide], for which the IC50 is over 1000 nM. `Cn1cc(-c2cnc(N)c(C(=O)N[C@@H]3CCN(C(=O)c4cc5ccccc5o4)C3)c2)cn1` [Example 401, (R)-2-amino-N-(1-(benzofuran-2-carbonyl)pyrrolidin-3-yl)-5-(1-methyl-1H-pyrazol-4-yl)nicotinamide]: the IC50 was over 1000 nM.

As to `Cc1c(C(=O)N2CC[C@@H](NC(=O)c3cc(-c4cnn(C)c4)cnc3N)C2)oc2ccccc12` [Example 402, (R)-2-amino-5-(1-methyl-1H-pyrazol-4-yl)-N-(1-(3-methylbenzofuran-2-carbonyl)pyrrolidin-3-yl)nicotinamide], the IC50 was over 1000 nM. As to `Cn1cc(-c2cnc(N)c(C(=O)N[C@@H]3CCN(C(=O)c4cc5cc(Cl)ccc5o4)C3)c2)cn1` [Example 403, (R)-2-amino-N-(1-(5-chlorobenzofuran-2-carbonyl)pyrrolidin-3-yl)-5-(1-methyl-1H-pyrazol-4-yl)nicotinamide], the half-maximal inhibitory concentration (IC50) is over 1000 nM. For `Cn1cc(-c2cnc(N)c(C(=O)N[C@@H]3CCN(C(=O)C4Cc5cc(Cl)ccc5O4)C3)c2)cn1` (stereo partly drawn) [Example 404, 2-amino-N-((3R)-1-(5-chloro-2,3-dihydrobenzofuran-2-carbonyl)pyrrolidin-3-yl)-5-(1-methyl-1H-pyrazol-4-yl)nicotinamide], the half-inhibitory concentration (IC50) is over 1000 nM.

As for `Cn1cc(-c2cnc(N)c(C(=O)N[C@@H]3CCN(C(=O)c4ccc5ccccc5c4)C3)c2)cn1` [Example 405, (R)—N-(1-(2-naphthoyl)pyrrolidin-3-yl)-2-amino-5-(1-methyl-1H-pyrazol-4-yl)nicotinamide], the IC50 is 100 to 1000 nM.

In turn, `Cn1cc(-c2cnc(N)c(C(=O)N[C@@H]3CCN(C(=O)c4cc5ccccc5s4)C3)c2)cn1` [Example 406, (R)-2-amino-N-(1-(benzo[b]thiophene-2-carbonyl)pyrrolidin-3-yl)-5-(1-methyl-1H-pyrazol-4-yl)nicotinamide] registered an IC50 of 100 to 1000 nM. In turn, `Cn1cc(-c2cnc(N)c(C(=O)N[C@@H]3CCN(C(=O)c4cc(Br)c(Br)s4)C3)c2)cn1` [Example 407, (R)-2-amino-N-(1-(4,5-dibromothiophene-2-carbonyl)pyrrolidin-3-yl)-5-(1-methyl-1H-pyrazol-4-yl)nicotinamide] displayed a concentration for half-maximal inhibition (IC50) of over 1000 nM. Then `Cc1ccc(C(=O)N2CC[C@@H](NC(=O)c3cc(-c4cnn(C)c4)cnc3N)C2)s1` [Example 408, (R)-2-amino-5-(1-methyl-1H-pyrazol-4-yl)-N-(1-(5-methylthiophene-2-carbonyl)pyrrolidin-3-yl)nicotinamide], with over 1000 nM. Compound `Cn1cc(-c2cnc(N)c(C(=O)N[C@@H]3CCN(C(=O)c4ccc(OCc5ccccc5)cc4)C3)c2)cn1` [Example 410, (R)-2-amino-N-(1-(4-(benzyloxy)benzoyl)pyrrolidin-3-yl)-5-(1-methyl-1H-pyrazol-4-yl)nicotinamide] displayed an IC50 of 100 to 1000 nM. For the compound `Cn1cc(-c2cnc(N)c(C(=O)N[C@@H]3CCN(C(=O)c4cccc(Oc5ccccc5)c4)C3)c2)cn1` [Example 412, (R)-2-amino-5-(1-methyl-1H-pyrazol-4-yl)-N-(1-(3-phenoxybenzoyl)pyrrolidin-3-yl)nicotinamide], the IC50 was over 1000 nM.

Consider `Cn1cc(-c2cnc(N)c(C(=O)N[C@@H]3CCN(C(=O)c4ccc(C(C)(C)C)cc4)C3)c2)cn1` [Example 414, (R)-2-amino-N-(1-(4-(tert-butyl)benzoyl)pyrrolidin-3-yl)-5-(1-methyl-1H-pyrazol-4-yl)nicotinamide], for which the 50% inhibitory concentration (IC50) is over 1000 nM.

Turning to `Cc1ccc(C(=O)N2CC[C@@H](NC(=O)c3cc(-c4cnn(C)c4)cnc3N)C2)cc1C` [Example 415, (R)-2-amino-N-(1-(3,4-dimethylbenzoyl)pyrrolidin-3-yl)-5-(1-methyl-1H-pyrazol-4-yl)nicotinamide], the IC50 is over 1000 nM. Turning to `CN1CCN(c2ccc(C(=O)N3CC[C@@H](NC(=O)c4cc(-c5cnn(C)c5)cnc4N)C3)cc2)CC1` [Example 416, (R)-2-amino-5-(1-methyl-1H-pyrazol-4-yl)-N-(1-(4-(4-methylpiperazin-1-yl)benzoyl)pyrrolidin-3-yl)nicotinamide], the IC50 is over 1000 nM. As for `CC(C)c1ccc(C(=O)N2CC[C@@H](NC(=O)c3cc(-c4cnn(C)c4)cnc3N)C2)cc1` [Example 418, (R)-2-amino-N-(1-(4-isopropylbenzoyl)pyrrolidin-3-yl)-5-(1-methyl-1H-pyrazol-4-yl)nicotinamide], the concentration for half-maximal inhibition (IC50) was over 1000 nM. Compound `Cn1cc(-c2cnc(N)c(C(=O)N[C@@H]3CCN(C(=O)c4ccc(C#N)cc4)C3)c2)cn1` [Example 419, (R)-2-amino-N-(1-(4-cyanobenzoyl)pyrrolidin-3-yl)-5-(1-methyl-1H-pyrazol-4-yl)nicotinamide] gave an IC50 of over 1000 nM. As to `CSc1ccc(C(=O)N2CC[C@@H](NC(=O)c3cc(-c4cnn(C)c4)cnc3N)C2)cc1` [Example 420, (R)-2-amino-5-(1-methyl-1H-pyrazol-4-yl)-N-(1-(4-(methylthio)benzoyl)pyrrolidin-3-yl)nicotinamide], the IC50 was over 1000 nM.

The compound `Cn1cc(-c2cnc(N)c(C(=O)N[C@@H]3CCN(C(=O)Cc4ccc(-c5ccccc5)cc4)C3)c2)cn1` [Example 422, (R)—N-(1-(2-([1,1′-biphenyl]-4-yl)acetyl)pyrrolidin-3-yl)-2-amino-5-(1-methyl-1H-pyrazol-4-yl)nicotinamide] had an IC50 of over 1000 nM.

`Cn1cc(-c2cnc(N)c(C(=O)N[C@@H]3CCN(C(=O)C=Cc4ccccc4)C3)c2)cn1` [Example 424, (R)-2-amino-N-(1-cinnamoylpyrrolidin-3-yl)-5-(1-methyl-1H-pyrazol-4-yl)nicotinamide] yielded an IC50 of over 1000 nM.
